What all share (type): biochemical
For one assay, the target named is T1, recombinant human DPP7 (Homo sapiens, UniProt Q9UHL4).
T1 construct: purchased R&D Systems
In words: DPP7 inhibition, fluorogenic substrate Lys-Pro-AMC. An outline of the steps:
(§1)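 Enzyme per reaction: 50 ng DPP9, 20 ng DPP8, 10 ng each DPP7 and PREP. Compounds were serially diluted (8 points, up to 0.5% DMSO) and incubated at 25 °C.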

The next assay addresses T2, recombinant human DPP8 (Homo sapiens, UniProt Q6V1X1).
T2 construct: purchased PBS Bioscience
In words: DPP8 inhibition, fluorogenic substrate Z-Ala-Pro-AMC. The method, boiled down: as §1

Another assay deals with T3, recombinant human PREP (Homo sapiens, UniProt P48147).
T3 construct: purchased R&D System
T3 sequence (P48147 1-710): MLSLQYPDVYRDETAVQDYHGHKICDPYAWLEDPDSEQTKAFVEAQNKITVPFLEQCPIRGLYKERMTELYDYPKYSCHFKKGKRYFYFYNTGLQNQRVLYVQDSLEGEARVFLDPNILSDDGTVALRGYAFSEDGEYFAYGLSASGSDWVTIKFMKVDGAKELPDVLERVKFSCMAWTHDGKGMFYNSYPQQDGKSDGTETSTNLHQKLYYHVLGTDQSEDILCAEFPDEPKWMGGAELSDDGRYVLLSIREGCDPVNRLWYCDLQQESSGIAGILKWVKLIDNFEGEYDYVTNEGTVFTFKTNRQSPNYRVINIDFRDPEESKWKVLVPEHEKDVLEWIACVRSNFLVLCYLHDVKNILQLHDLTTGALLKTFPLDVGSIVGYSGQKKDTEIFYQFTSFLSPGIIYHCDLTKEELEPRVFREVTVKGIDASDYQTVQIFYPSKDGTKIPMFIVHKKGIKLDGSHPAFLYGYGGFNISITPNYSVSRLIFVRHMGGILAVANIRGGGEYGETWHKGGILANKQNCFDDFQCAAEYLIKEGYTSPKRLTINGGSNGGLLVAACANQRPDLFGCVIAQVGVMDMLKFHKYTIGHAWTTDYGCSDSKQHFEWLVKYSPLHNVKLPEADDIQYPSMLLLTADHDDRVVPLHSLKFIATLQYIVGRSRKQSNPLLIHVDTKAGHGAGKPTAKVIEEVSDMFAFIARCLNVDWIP
Kind of assay: PREP inhibition, fluorogenic substrate Z-Gly-Pro-AMC. The settings on record: Inhibitory Activity (IC50, nM) PREP. An outline of the steps:
as §1

The next assay has as its target T4, Recombinant human FAP (Homo sapiens, UniProt Q12884).
T4 construct: purchased R&D systems
T4 sequence (Q12884 1-760): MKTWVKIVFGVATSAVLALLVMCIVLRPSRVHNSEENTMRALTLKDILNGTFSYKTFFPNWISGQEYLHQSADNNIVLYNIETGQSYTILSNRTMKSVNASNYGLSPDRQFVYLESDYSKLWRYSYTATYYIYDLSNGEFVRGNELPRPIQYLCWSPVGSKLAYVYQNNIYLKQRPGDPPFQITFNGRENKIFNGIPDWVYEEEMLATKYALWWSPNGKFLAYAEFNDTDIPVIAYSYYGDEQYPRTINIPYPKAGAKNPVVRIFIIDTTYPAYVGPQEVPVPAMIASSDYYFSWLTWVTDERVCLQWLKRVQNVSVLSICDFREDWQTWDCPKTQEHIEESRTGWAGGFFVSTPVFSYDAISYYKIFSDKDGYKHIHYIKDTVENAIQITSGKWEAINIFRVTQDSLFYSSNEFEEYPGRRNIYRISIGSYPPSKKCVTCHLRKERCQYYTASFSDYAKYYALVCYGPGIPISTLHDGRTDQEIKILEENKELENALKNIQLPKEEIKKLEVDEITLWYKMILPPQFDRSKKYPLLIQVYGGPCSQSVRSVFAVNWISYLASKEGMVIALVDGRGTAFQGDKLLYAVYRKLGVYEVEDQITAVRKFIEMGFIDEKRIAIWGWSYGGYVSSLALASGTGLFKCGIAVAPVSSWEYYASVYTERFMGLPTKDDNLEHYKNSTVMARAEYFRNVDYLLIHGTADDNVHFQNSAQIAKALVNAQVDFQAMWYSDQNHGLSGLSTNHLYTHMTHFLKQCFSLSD
Kind of assay: FAP inhibition, fluorogenic substrate Z-Gly-Pro-AMC. The method, boiled down:
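Recombinant human FAP, 10 ng per reaction, in 50 mM Tris pH 7.5 with 1 M NaCl and 1 mg/ml BSA at 25° C; substrate Z-Gly-Pro-AMC, ≤0.1% DMSO. AMC fluorescence read at ex 380/em 460 nm; % signal-rate decrease vs no-inhibitor control, 8-point curves fitted to a four-parameter logistic for IC50.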

The target in a further assay is DPP4 (Homo sapiens, UniProt P27487). In words: DPP4 inhibition, fluorogenic substrate H-Gly-Pro-AMC. Set-up: purchased R&D Systems.
DPP4, sequence (P27487 whole entry): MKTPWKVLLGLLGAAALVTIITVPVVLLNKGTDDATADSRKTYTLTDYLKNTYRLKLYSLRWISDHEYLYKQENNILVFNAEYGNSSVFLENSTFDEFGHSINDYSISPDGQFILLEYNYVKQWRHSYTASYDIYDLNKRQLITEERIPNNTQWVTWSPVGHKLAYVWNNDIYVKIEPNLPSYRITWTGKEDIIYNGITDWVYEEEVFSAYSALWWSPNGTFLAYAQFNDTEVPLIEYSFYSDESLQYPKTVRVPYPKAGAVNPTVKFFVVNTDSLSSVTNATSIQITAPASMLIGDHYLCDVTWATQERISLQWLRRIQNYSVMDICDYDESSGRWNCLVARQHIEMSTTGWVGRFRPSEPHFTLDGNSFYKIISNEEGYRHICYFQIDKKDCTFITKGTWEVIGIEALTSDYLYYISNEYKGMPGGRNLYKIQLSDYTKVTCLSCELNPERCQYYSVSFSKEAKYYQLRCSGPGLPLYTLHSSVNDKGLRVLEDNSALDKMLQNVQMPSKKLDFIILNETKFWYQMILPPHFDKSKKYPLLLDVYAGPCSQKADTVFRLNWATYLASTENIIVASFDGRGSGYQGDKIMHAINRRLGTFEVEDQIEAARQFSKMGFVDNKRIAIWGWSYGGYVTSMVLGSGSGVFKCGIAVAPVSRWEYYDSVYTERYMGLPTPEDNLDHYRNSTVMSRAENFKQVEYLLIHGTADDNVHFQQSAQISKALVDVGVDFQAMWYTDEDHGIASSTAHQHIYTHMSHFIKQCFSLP
Another assay addresses T5, recombinant human DPP9 (Homo sapiens, UniProt Q86TI2).
T5 construct: purchased R&D Systems
In words: DPP9 inhibition, fluorogenic substrate H-Gly-Pro-AMC. The method, boiled down:
as §1

Where [1] appears, read: recombinant human FAP, substrate Z-Gly-Pro-AMC.
The mark [2] stands for this setting: 25° C., Z-Ala-Pro-AMC substrate.
Setting [3] is: 25° C., Z-Gly-Pro-AMC substrate.
Setting [4] is: 25° C., H-Gly-Pro-AMC substrate.

Where two headings read alike, the source gives them in different places.

T5 sequence (Q86TI2 whole entry): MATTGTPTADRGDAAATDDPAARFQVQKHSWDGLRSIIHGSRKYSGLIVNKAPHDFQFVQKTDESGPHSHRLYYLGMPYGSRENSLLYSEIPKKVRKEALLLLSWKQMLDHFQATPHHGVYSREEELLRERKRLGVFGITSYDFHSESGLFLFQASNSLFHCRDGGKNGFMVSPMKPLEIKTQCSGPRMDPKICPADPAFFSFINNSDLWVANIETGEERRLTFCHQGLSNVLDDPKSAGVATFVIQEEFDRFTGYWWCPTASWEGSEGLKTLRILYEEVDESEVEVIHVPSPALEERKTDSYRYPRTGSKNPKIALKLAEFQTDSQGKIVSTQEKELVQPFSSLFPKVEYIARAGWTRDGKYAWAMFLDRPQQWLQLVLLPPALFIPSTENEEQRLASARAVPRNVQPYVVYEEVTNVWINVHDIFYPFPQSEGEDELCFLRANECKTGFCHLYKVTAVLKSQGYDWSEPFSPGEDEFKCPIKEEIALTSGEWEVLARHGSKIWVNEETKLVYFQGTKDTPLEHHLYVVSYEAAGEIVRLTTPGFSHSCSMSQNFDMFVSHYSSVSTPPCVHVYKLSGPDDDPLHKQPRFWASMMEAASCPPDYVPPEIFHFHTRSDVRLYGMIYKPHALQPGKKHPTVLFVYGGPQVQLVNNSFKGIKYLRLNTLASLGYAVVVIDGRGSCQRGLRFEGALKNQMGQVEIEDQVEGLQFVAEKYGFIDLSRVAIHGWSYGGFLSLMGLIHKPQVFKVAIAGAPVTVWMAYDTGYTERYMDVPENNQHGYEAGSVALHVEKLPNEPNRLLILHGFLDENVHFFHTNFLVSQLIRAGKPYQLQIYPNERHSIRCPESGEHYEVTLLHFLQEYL
T2 sequence (Q6V1X1 whole entry): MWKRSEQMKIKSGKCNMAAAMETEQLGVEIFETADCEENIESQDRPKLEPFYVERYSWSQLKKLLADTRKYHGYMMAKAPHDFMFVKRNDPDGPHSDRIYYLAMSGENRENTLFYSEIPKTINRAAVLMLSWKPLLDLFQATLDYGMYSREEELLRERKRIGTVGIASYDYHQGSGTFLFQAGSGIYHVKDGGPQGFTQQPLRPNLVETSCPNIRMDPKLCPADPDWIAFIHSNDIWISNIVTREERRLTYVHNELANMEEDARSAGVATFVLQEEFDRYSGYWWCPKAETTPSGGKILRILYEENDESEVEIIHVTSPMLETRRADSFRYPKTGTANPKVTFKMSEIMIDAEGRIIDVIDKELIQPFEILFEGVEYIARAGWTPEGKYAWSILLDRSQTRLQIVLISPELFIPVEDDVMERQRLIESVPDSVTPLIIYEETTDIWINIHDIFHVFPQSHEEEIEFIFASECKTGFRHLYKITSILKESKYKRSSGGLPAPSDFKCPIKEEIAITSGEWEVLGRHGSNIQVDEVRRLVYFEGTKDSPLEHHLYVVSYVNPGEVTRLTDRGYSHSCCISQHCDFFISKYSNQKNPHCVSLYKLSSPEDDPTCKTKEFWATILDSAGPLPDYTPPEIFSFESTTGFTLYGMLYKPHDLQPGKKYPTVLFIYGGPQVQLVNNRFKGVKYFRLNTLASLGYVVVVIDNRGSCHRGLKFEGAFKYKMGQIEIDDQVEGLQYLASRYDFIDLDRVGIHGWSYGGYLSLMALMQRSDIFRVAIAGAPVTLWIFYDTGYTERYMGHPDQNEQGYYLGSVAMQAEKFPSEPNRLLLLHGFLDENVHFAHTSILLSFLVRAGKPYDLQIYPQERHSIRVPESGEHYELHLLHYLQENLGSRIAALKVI

Usually IC50 stands for the concentration that gives 50% inhibition. Consider `N#C[C@@H]1C[C@H](F)CN1C(=O)CN1CCC(Nc2ccc(Cl)c3cnccc23)CC1` [Example 353, (2S,4S)-1-[2-[4-[(8-chloro-5-isoquinolyl)amino]-1-piperidyl]acetyl]-4-fluoro-pyrrolidine-2-carbonitrile], for which the IC50 on recombinant human DPP7 (recombinant human DPP7) was 1.06 µM; on recombinant human DPP8 (recombinant human DPP8) it was over 10 µM; at recombinant human PREP (recombinant human PREP) it was 3570 nM; on Recombinant human FAP (setting [1]), 0.0045 µM; at DPP4 (recombinant human DPP4) it was 5.89 µM; at recombinant human DPP9 (recombinant human DPP9), 2.88 µM.

Turning to `N#C[C@@H]1CCCN1C(=O)CN1CC[C@H](Nc2ccc(OCc3ccccc3)c3ncccc23)C1` [Example 248, (2S)-1-[2-[(3S)-3-[(8-benzyloxy-5-quinolyl)amino]pyrrolidin-1-yl]acetyl]pyrrolidine-2-carbonitrile], the concentration for half-maximal inhibition (IC50) at recombinant human DPP7 (recombinant human DPP7) came to 0.81 µM; at recombinant human DPP8 (recombinant human DPP8) it was 5.34 µM; on recombinant human PREP (recombinant human PREP), 6160 nM; on Recombinant human FAP (setting [1]), 0.0031 µM; on DPP4 (recombinant human DPP4), 7.07 µM; at recombinant human DPP9 (recombinant human DPP9), 3.68 µM.

For the compound `CN(c1cnc2ccccc2c1)C1CCN(CC(=O)N2C[C@@H](F)C[C@H]2C#N)CC1` [Example 316, (2S,4S)-4-fluoro-1-[2-[4-[methyl(3-quinolyl)amino]-1-piperidyl]acetyl]pyrrolidine-2-carbonitrile], the IC50 at recombinant human DPP7 (recombinant human DPP7) is 1.87 µM; on recombinant human DPP8 (recombinant human DPP8), over 100 µM; at recombinant human PREP (recombinant human PREP), 500 nM; on Recombinant human FAP (setting [1]) it was 0.0031 µM; at DPP4 (recombinant human DPP4), over 10 µM; on recombinant human DPP9 (recombinant human DPP9) it was 8.2 µM.

For the compound `N#C[C@@H]1CCCN1C(=O)CN1CC[C@H](Nc2cccc3ncc(Cl)cc23)C1` [Example 235, (2S)-1-[2-[(3S)-3-[(3-chloro-5-quinolyl)amino]pyrrolidin-1-yl]acetyl]pyrrolidine-2-carbonitrile], the half-maximal inhibitory concentration (IC50) was 2.79 µM on recombinant human DPP7 (recombinant human DPP7); 23.4 µM at recombinant human DPP8 (recombinant human DPP8); 8460 nM at recombinant human PREP (recombinant human PREP); 0.0007 µM on Recombinant human FAP (setting [1]); over 10 µM at DPP4 (recombinant human DPP4); 17.6 µM on recombinant human DPP9 (recombinant human DPP9).

A word on the inhibition: it is the relative decrease from the control value, in per cent. Take `N#C[C@@H]1CCCN1C(=O)CN1CC[C@H](NC(=O)c2ccc3ccoc3c2)C1` [Example 57, N—((S)-1-(2-((S)-2-cyanopyrrolidin-1-yl)-2-oxoethyl)pyrrolidin-3-yl)benzofuran-6-carboxamide]: the IC50 on recombinant human DPP7 was determined as 0.499 µM; at recombinant human DPP8 (setting [2]), 6 µM; at recombinant human PREP (setting [3]), 10200 nM; on Recombinant human FAP (setting [3]), 0.0251 µM; on recombinant human DPP9 (setting [4]), 26.5 µM. Moreover, the inhibition at 1 µM on DPP4 (read-out: hDPP4 inhibition % at 1 μM) worked out at 0.6%.

Regarding `N#C[C@@H]1CCCN1C(=O)CN1CC[C@H](Nc2cnc3ccccc3c2)C1` [Example 229, (2S)-1-[2-[(3S)-3-(3-quinolylamino)pyrrolidin-1-yl]acetyl]pyrrolidine-2-carbonitrile], the 50% inhibitory concentration (IC50) at recombinant human DPP7 (recombinant human DPP7) is 1.16 µM; at recombinant human DPP8 (recombinant human DPP8), over 100 µM; at recombinant human PREP (recombinant human PREP), 4840 nM; on Recombinant human FAP (setting [1]), 0.0168 µM; on DPP4 (recombinant human DPP4), over 10 µM; on recombinant human DPP9 (recombinant human DPP9) it was 36.3 µM.

`CN(c1cncc2ccoc12)C1CCN(CC(=O)N2C[C@@H](F)C[C@H]2C#N)CC1` [Example 350, (2S,4S)-4-fluoro-1-[2-[4-[furo[3,2-c]pyridin-7-yl(methyl)amino]-1-piperidyl]acetyl]pyrrolidine-2-carbonitrile]: the IC50 on recombinant human DPP7 (recombinant human DPP7) came out at 9.08 µM; on recombinant human DPP8 (recombinant human DPP8) it was 17.5 µM; at recombinant human PREP (recombinant human PREP), 625 nM; on Recombinant human FAP (setting [1]), 0.0082 µM; at DPP4 (recombinant human DPP4), 7.9 µM; on recombinant human DPP9 (recombinant human DPP9), 27.5 µM.

`N#C[C@@H]1C[C@H](F)CN1C(=O)CN1CC[C@H](Nc2ccc3ncccc3c2)C1` [Example 250, (2S,4S)-4-fluoro-1-[2-[(3S)-3-(6-quinolylamino)pyrrolidin-1-yl]acetyl]pyrrolidine-2-carbonitrile]: the IC50 at recombinant human DPP7 (recombinant human DPP7) was found to be 0.654 µM; at recombinant human DPP8 (recombinant human DPP8) it was 2.28 µM; on recombinant human PREP (recombinant human PREP), 2160 nM; on Recombinant human FAP (setting [1]) it was 0.0034 µM; at DPP4 (recombinant human DPP4) it was 0.964 µM; on recombinant human DPP9 (recombinant human DPP9), 3.69 µM.

In the case of `COc1cc(N[C@H]2CCN(CC(=O)N3CCC[C@H]3C#N)C2)c2cccnc2c1` [Example 237, (2S)-1-[2-[(3S)-3-[(7-methoxy-5-quinolyl)amino]pyrrolidin-1-yl]acetyl]pyrrolidine-2-carbonitrile], the IC50 at recombinant human DPP7 (recombinant human DPP7) is 0.746 µM; at recombinant human DPP8 (recombinant human DPP8), 22.6 µM; on recombinant human PREP (recombinant human PREP), 6600 nM; on Recombinant human FAP (setting [1]), 0.0015 µM; on DPP4 (recombinant human DPP4), 9.29 µM; at recombinant human DPP9 (recombinant human DPP9), 34.6 µM.

Take `CN(c1ccc2ncccc2c1)C1CCN(CC(=O)N2CCC[C@H]2C#N)CC1` [Example 310, (2S)-1-[2-[4-[methyl(6-quinolyl)amino]-1-piperidyl]acetyl]pyrrolidine-2-carbonitrile]: the IC50 on recombinant human DPP7 (recombinant human DPP7) is 4.33 µM; at recombinant human DPP8 (recombinant human DPP8), over 100 µM; on recombinant human PREP (recombinant human PREP), 740 nM; at Recombinant human FAP (setting [1]) it was 0.0053 µM; on DPP4 (recombinant human DPP4) it was over 10 µM; on recombinant human DPP9 (recombinant human DPP9) it was 66.4 µM.

For the compound `COc1cc(NC2CCN(CC(=O)N3CCC[C@H]3C#N)CC2)c2cccnc2c1` [Example 124, (S)-1-(2-(4-((7-methoxyquinolin-5-yl)amino)piperidin-1-yl)acetyl)pyrrolidine-2-carbonitrile], the concentration for half-maximal inhibition (IC50) on recombinant human DPP7 is 0.518 µM; at recombinant human DPP8 (setting [2]) it was 46.8 µM; on recombinant human PREP (setting [3]), 16100 nM; on Recombinant human FAP (setting [3]), 0.00381 µM; at DPP4 (setting [4]) it was over 10 µM; on recombinant human DPP9 (setting [4]), 82.7 µM.

On to `N#C[C@@H]1CCCN1C(=O)CN1CCC(Oc2cccc3ncccc23)CC1` [Example 119, (S)-1-(2-(4-(quinolin-5-yloxy)piperidin-1-yl)acetyl)pyrrolidine-2-carbonitrile], for which the IC50 on recombinant human DPP7 was 2.35 µM; at recombinant human DPP8 (setting [2]), 60.4 µM; at recombinant human PREP (setting [3]) it was 3760 nM; at Recombinant human FAP (setting [3]), 0.00145 µM; on recombinant human DPP9 (setting [4]), over 100 µM. Besides, the “hDPP4 inhibition % at 1 μM” value at DPP4 was “No inhibition**”.

As for `N#C[C@@H]1CCCN1C(=O)CN1CCC(Nc2ccnc3ccccc23)CC1` [Example 111, (S)-1-(2-(4-(quinolin-4-ylamino)piperidin-1-yl)acetyl)pyrrolidine-2-carbonitrile], the IC50 amounted to 0.503 µM at recombinant human DPP7; 31.9 µM on recombinant human DPP8 (setting [2]); 4170 nM on recombinant human PREP (setting [3]); 0.00828 µM on Recombinant human FAP (setting [3]); 21.1 µM on recombinant human DPP9 (setting [4]). Further, the “hDPP4 inhibition % at 1 μM” value at DPP4 is “No inhibition**”.

On to `N#C[C@@H]1CCCN1C(=O)CN1CC[C@H](NC(=O)c2csc3ccccc23)C1` [Example 41, N—((S)-1-(2-((S)-2-cyanopyrrolidin-1-yl)-2-oxoethyl)pyrrolidin-3-yl)benzo[b]thiophene-3-carboxamide], for which the IC50 at recombinant human DPP7 was 4.13 µM; on recombinant human DPP8 (setting [2]) it was 62.1 µM; on recombinant human PREP (setting [3]) it was 3190 nM; on Recombinant human FAP (setting [3]), 0.0037 µM; against DPP4 (setting [4]) it was over 1 µM; on recombinant human DPP9 (setting [4]), over 100 µM.
